The record followed here is US20040077667A1, “Quinazolinone derivatives” (priority 2000, published 2004).

By IC50 is commonly meant the concentration at which inhibition is half-maximal.

The target in one assay is recombinant human PARP (Homo sapiens, UniProt P09874). The assay is described as follows: PARP inhibitory activity (in vitro assay). Type of assay: biochemical. To be noted: 32P-NAD, 15 minutes at room temperature. As to the method: B. PARP Inhibitory Activity (In Vitro Assay)
The recombinant human PARP (5.3 mg protein/ml) were incubated with a test compound in a 100 μl reaction buffer containing the indicated concentration of 1 mCi/ml ^32P-NAD, 50 mM Tris-HCl, 25 mM MgCl2, 1 mM DTT (dithiothreitol), 0.05 mM NAD (nicotinamido adenine dinucleotide), 1 mg/ml activated DNA, pH8.0. Incubation was for 15 minutes at a room temperature and the reaction was stopped by the addition of 200 μl of ice-cold 20% tricholoroacetic acid followed by rapid filtration through GF/B filters. The filters were treated with scintillation fluid and acid-insoluble counts were measured for quantification of unit activity.
PARP inhibitory activity (%)=[1-(enzyme activity with test compound)/(enzyme activity with vehicle)]×100

For assay [1], the system named is Mice MPTP(N-methyl-1,2,3,6-tetrahydropyridine)-induced Parkinson's model. The assay can be described thus: Effect on the level of striatal dopamine and its metabolite in mice MPTP-induced Parkinson's model. Particulars: 32 mg/kg, two i.p. injections, four days after last MPTP, *P < 0.05 vs MPTP. Type of assay: in vivo. As to the method:
C. Effect of Test Compound on the Level of Striatal Dopamine and its Metabolite in Mice MPTP([…])-induced Parkinson's model
Mice received four i.p. injections of MPTP-HCl (20 mg/kg) in saline at 2 hours intervals and two i.p. injections of Test compound at 30 minutes before 1st injection and 3rd injection of MPTP.
Four days after the last MPTP injection, mice were sacrificed, brains were quickly removed, and striata were dissected out on an ice-cold glass Petri dish. Samples were homogenized in a buffer of 0.1M perchloric acid containing isoproterenol as internal standard. HPLC with electrochemical detection was used to measure striatal levels of DA (dopamine), DOPAC (dihydroxyphenylacetic acid) and HVA (homovanilic acid).
The level of DA, DOPAC and HVA were expressed as a percentage of Normal taken as the 100%.

recombinant human PARP, sequence (P09874 whole entry): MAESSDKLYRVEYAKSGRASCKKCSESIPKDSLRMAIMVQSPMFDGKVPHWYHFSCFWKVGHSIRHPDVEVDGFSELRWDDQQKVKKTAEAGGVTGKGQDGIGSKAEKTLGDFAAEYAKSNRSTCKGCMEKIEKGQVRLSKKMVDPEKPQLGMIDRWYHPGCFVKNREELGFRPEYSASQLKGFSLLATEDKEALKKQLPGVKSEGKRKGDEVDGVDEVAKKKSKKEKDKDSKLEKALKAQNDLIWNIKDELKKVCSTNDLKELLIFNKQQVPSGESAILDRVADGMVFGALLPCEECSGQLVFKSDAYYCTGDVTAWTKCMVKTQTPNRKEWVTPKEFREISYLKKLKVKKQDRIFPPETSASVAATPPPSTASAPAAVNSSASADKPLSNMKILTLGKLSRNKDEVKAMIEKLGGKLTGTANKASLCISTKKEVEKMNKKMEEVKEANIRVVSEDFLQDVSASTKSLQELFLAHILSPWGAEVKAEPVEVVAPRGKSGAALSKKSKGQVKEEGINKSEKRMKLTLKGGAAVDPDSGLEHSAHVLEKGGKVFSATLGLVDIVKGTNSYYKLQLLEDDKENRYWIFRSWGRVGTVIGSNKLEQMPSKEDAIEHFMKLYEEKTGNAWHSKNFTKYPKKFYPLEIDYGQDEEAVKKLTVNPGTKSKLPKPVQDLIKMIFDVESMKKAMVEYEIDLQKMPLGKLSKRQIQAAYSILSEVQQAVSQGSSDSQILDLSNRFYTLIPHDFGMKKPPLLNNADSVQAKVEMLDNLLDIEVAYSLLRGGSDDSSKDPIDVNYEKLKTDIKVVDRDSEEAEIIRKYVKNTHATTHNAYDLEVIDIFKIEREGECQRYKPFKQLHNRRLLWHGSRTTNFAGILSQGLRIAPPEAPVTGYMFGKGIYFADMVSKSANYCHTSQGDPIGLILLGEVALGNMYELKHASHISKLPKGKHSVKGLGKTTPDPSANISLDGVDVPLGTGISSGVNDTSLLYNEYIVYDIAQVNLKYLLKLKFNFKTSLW

For the molecule `O=c1[nH]c(CCCN2CC=C(c3ccccc3)CC2)nc2cccc(Cl)c12` [Compound A, 5-chloro-2-[3-(4-phenyl-3,6-dihydro-1(2H)-pyridinyl)propyl]-4(3H)-quinazolinone], the 50% inhibitory concentration (IC50) on recombinant human PARP was less than 0.5 µM. The Dopamine levels in assay [1] (striatal DA as percentage of Normal (100%)) is 59* %. Besides, in assay [1] (striatal DOPAC as percentage of Normal (100%)), the DOPAC levels is on record as 58* %. Besides, the HVA levels in assay [1] (striatal HVA as percentage of Normal (100%)) is reported as 64* %.
In the case of `O=c1[nH]c(/C=C/CN2CC=C(c3ccc(F)cc3)CC2)nc2c(Cl)cccc12` [Compound B, 8-chloro-2-{(1E)-3-[4-(4-fluorophenyl)-3,6-dihydro-1(2H)-pyridinyl]-1-propenyl}-4(3H)-quinazolinone], the IC50 at recombinant human PARP was less than 0.5 µM.
In the case of `O=c1[nH]c(CCCN2CC=C(c3ccncc3)CC2)nc2c(Cl)cccc12` [Compound C, 8-Chloro-2-{[4-(4-pyridinyl)-3,6-dihydro-1(2H)-pyridinyl]propyl}-4(3H)-quinazolinone], the 50% inhibitory concentration (IC50) at recombinant human PARP is less than 0.5 µM.
Same read-out and setting: next, `Cc1cccc2c(=O)[nH]c(CCCN3CCc4c([nH]c5ccccc45)C3)nc12` [Compound D, 8-methyl-2-[3-(1,3,4,9-tetrahydro-2H-pyrido[3,4-b]indol-2-yl)propyl]-4(3H)-quinazolinone]: less than 0.5 µM.
